Laboratory results published in patent US20100210464A1, “HERBICIDAL COMPOSITION AND METHOD OF USE THEREOF” (SYNGENTA CROP PROTECTION, INC., priority 2007, published 2010).
Marks after values point to notes of the source that are not given here.

Columns and labels:
Type in all cases: in vivo
[1] = tested on: goosegrass (Eleusine indica); test: Glasshouse trial, control of goosegrass, spray applied pre-emergence (Example 1); conditions: for Actual weed control, Plus Mesotrione at 100 g ai/ha: X-77 0.1% v/v
Method: (§1) In the following tests, herbicides were applied at reduced field rates because herbicide effects are magnified in a glasshouse environment. The rates tested were selected to give between about 50 and 70% control with herbicides applied alone, so that any synergistic effect could be readily detected when testing mixtures. A glasshouse trial was carried out. Goosegrass seeds were sown into standard glasshouse potting mix (1:1 v/v Promix:Vero sand soil) contained in 10 cm square plastic pots. Treatments were replicated three times. Mesotrione (in the form Callisto® 480SE) was applied pre-emergence to goosegrass (Eleusine indica) at 100 g ai/ha with or without pendimethalin (in the form Prowl® H2O). When used, pendimethalin was applied at a rate of 140 g ai/ha or 280 g ai/ha. The adjuvant system was X-77 at 0.1% v/v in deionised water. 200 litres of herbicide/adjuvant system was used per hectare. General weed control was evaluated at 7 and 14 days after treatment (DAT). It is noted that all herbicides were applied at reduced field rates because herbicide effects are magnified in a glasshouse environment. Rates were chosen to give a 50 to 70% level of control with herbicides applied alone as this allows for detection of any synergistic effect when tank mixtures are used. The results were evaluated using the Colby formula. The expected result for (A+B) is (A+B)−(A×B/100) where A and B are the ‘observed’ results for A and B on their own.

[2] = tested on: goosegrass (Eleusine indica); test: Glasshouse trial, control of goosegrass, granules applied pre-emergence (Example 2)
Method: as §1, with “A” for “In the following tests, herbicides were applied at reduced field rates because herbicide effects are magnified in a glasshouse environment. The rates tested were selected to give between about 50 and 70% control with herbicides applied alone, so that any synergistic effect could be readily detected when testing mixtures. A”, “own. […] A glasshouse trial was carried out as described in Example 1, except that the herbicides were applied in the form of granules. Mesotrione granules were made by spraying a mesotrione millbase (28% SC formulation) onto a granular carrier, Agsorb LVM-GA 24/48. Pendimethalin granules were made by adding Prowl® 3.3EC (37.4%) and Agsorb LVM-GA 24/48 granules into a tumbler, followed by spraying with a binder, HiSil 233. For testing mixtures of mesotrione and pendimethalin, the appropriate number of granules for each herbicide were weighed and thoroughly mixed. […]” for “own.”

[3] = tested on: white clover (Trifolium repens); test: Glasshouse trial, control of white clover, granules applied post-emergence (Example 4); conditions: pendimethalin granules 1120 g ai/ha + mesotrione granules 200 g ai/ha
Method: 200 litres of herbicide/adjuvant system was used per hectare. General weed control was evaluated at 7 and 14 days after treatment (DAT). It is noted that all herbicides were applied at reduced field rates because herbicide effects are magnified in a glasshouse environment. Rates were chosen to give a 50 to 70% level of control with herbicides applied alone as this allows for detection of any synergistic effect when tank mixtures are used. The results were evaluated using the Colby formula. The expected result for (A+B) is (A+B)−(A×B/100) where A and B are the ‘observed’ results for A and B on their own. […] A glasshouse trial was carried out as described in Example 1, except that the herbicides were applied in the form of granules. Mesotrione granules were made by spraying a mesotrione millbase (28% SC formulation) onto a granular carrier, Agsorb LVM-GA 24/48. Pendimethalin granules were made by adding Prowl® 3.3EC (37.4%) and Agsorb LVM-GA 24/48 granules into a tumbler, followed by spraying with a binder, HiSil 233. For testing mixtures of mesotrione and pendimethalin, the appropriate number of granules for each herbicide were weighed and thoroughly mixed. Granules were weighed for each individual pot using an amount equivalent to the rates listed in Table 2, and, based on a pot surface area of 10 cm^2, were carefully hand sprinkled on the emerged plants and pot surface. […]

[4] = pendimethalin granules 140 g ai/ha + mesotrione granules 100 g ai/ha
[5] = pendimethalin granules 140 g ai/ha + mesotrione granules 200 g ai/ha
[6] = pendimethalin granules 280 g ai/ha + mesotrione granules 100 g ai/ha
[7] = pendimethalin granules 280 g ai/ha + mesotrione granules 200 g ai/ha

With `CCC(CC)Nc1c([N+](=O)[O-])cc(C)c(C)c1[N+](=O)[O-]` [Pendimethalin, N-(1-ethylpropyl)-3,4-dimethyl-2,6-dinitrobenzenamine] the “Expected weed control (Colby formula), Plus Mesotrione at 100 g ai/ha” value (from here on “Expected weed control … at 100 g ai/ha”) ([1]; pendimethalin 140 g ai/ha + mesotrione 100 g ai/ha) was 22%, the “Expected weed control … at 100 g ai/ha” value ([1]; pendimethalin 280 g ai/ha + mesotrione 100 g ai/ha) was 22% and the “Actual weed control, Plus Mesotrione at 100 g ai/ha” value ([1]; pendimethalin (Prowl H2O) 140 g ai/ha + mesotrione (Callisto 480SE) 100 g ai/ha) was 35* %. The “Actual weed control, Plus Mesotrione at 100 g ai/ha” value ([1]; pendimethalin (Prowl H2O) 280 g ai/ha + mesotrione (Callisto 480SE) 100 g ai/ha) was 37* %, the “Actual weed control, Plus Mesotrione at 100 g ai/ha” value [2, 4] was 67* % and the “Expected weed control … at 100 g ai/ha” value [2, 4] was 48%. The “Actual weed control, Plus Mesotrione at 200 g ai/ha” value [2, 5] was 95* %, the “Expected weed control (Colby formula), Plus Mesotrione at 200 g ai/ha” value (“Expected weed control … at 200 g ai/ha” for short) [2, 5] was 80% and the “Actual weed control, Plus Mesotrione at 100 g ai/ha” value [2, 6] was 87* %. The “Expected weed control … at 100 g ai/ha” value [2, 6] was 49%, the “Actual weed control, Plus Mesotrione at 200 g ai/ha” value [2, 7] was 100* % and the “Expected weed control … at 200 g ai/ha” value [2, 7] was 80%. For the same compound, the “Actual weed control, Plus Mesotrione at 200 g ai/ha” value [3] was 93* % and the “Expected weed control … at 200 g ai/ha” value [3] was 76%.
